Measured values from patent publication US8604061B2, “2-aminooxazolines as TAAR1 ligands” (Hoffmann-La Roche Inc., priority 2007, dated 2013).

Target: TAAR1 (Mus musculus, UniProt Q923Y8)
Experiment: TAAR1 radioligand binding, membranes of stably transfected HEK293 cells (mouse)
Conditions: not given
Protocol: For the construction of expression plasmids the coding sequences of human, rat and mouse TAAR 1 were amplified from genomic DNA essentially as described by Lindemann et al.. The Expand High Fidelity PCR System (Roche Diagnostics) was used with 1.5 mM Mg^2+ and purified PCR products were cloned into pCR2.1-TOPO cloning vector (Invitrogen) following the instructions of the manufacturer. PCR products were subcloned into the pIRESneo2 vector (BD Clontech, Palo Alto, Calif.), and expression vectors were sequence verified before introduction in cell lines.
HEK293 cells (ATCC #CRL-1573) were cultured essentially as described Lindemann et al. (2005). For the generation of stably transfected cell lines HEK293 cells were transfected with the pIRESneo2 expression plasmids containing the TAAR coding sequences (described above) with Lipofectamine 2000 (Invitrogen) according to the instructions of the manufacturer, and 24 hrs post transfection the culture medium was supplemented with 1 mg/ml G418 (Sigma, Buchs, Switzerland). After a culture period of about 10 d clones were isolated, expanded and tested for responsiveness to trace amines (all compounds purchased from Sigma) with the cAMP Biotrak Enzyme immunoassay (EIA) System (Amersham) following the non-acetylation EIA procedure provided by the manufacturer.
Cells at confluence were rinsed with ice-cold phosphate buffered saline without Ca^2+ and Mg^2+ containing 10 mM EDTA and pelleted by centrifugation at 1000 rpm for 5 min at 4° C. The pellet was then washed twice with ice-cold phosphate buffered saline and cell pellet was frozen immediately by immersion in liquid nitrogen and stored until use at −80° C. Cell pellet was then suspended in 20 ml HEPES-NaOH (20 mM), pH 7.4 containing 10 mM EDTA, and homogenized with a Polytron (PT 3000, Kinematica) at 10,000 rpm for 10 s. The homogenate was centrifuged at 48,000×g for 30 min at 4° C. and the pellet resuspended in 20 ml HEPES-NaOH (20 mM), pH 7.4 containing 0.1 mM EDTA (buffer A), and homogenized with a Polytron at 10,000 rpm for 10 s. The homogenate was then centrifuged at 48,000×g for 30 min at 4° C. and the pellet resuspended in 20 ml buffer A, and homogenized with a Polytron at 10,000 rpm for 10 s. Protein concentration was determined by the method of Pierce (Rockford, Ill.). The homogenate was then centrifuged at 48,000×g for 10 min at 4° C., resuspended in HEPES-NaOH (20 mM), pH 7.0 including MgCl2 (10 mM) and […] homogenized with a Polytron at 10,000 rpm for 10 s.
Binding assay was performed at 4° C. in a final volume of 1 ml, and with an incubation time of 30 min. […] Non-specific binding was defined as the amount of [^3H]-rac-2-(1,2,3,4-tetrahydro-1-naphthyl)-2-imidazoline bound in the presence of the appropriate unlabelled ligand (10 μM). Competing ligands were tested in a wide range of concentrations (10 pM-30 μM). […] Each experiment was performed in duplicate. All incubations were terminated by rapid filtration through UniFilter-96 plates (Packard Instrument Company) and glass filter GF/C, pre-soaked for at least 2 h in polyethylenimine 0.3%, and using a Filtermate 96 Cell Harvester (Packard Instrument Company). The tubes and filters were then washed 3 times with 1 ml aliquots of cold buffer B. Filters were not dried and soaked in Ultima gold (45 μl/well, Packard Instrument Company) and bound radioactivity was counted by a TopCount Microplate Scintillation Counter (Packard Instrument Company).

| SMILES | Ki [µM] |
| --- | --- |
| Cc1cccc(CC[C@H]2COC(N)=N2)c1 [Example 115, (S)-4-(2-m-Tolyl-ethyl)-4,5-dihydro-oxazol-2-ylamine] | 0.001 |
| NC1=N[C@@H](CCc2ccc(F)cc2Cl)CO1 [Example 139, (S)-4-[2-(2-Chloro-4-fluoro-phenyl)-ethyl]-4,5-dihydro-oxazol-2-ylamine] | 0.0019 |

Same assay, conditions: mouse/rat; cell not marked 'rat'; radioligand [3H]-rac-2-(1,2,3,4-tetrahydro-1-naphthyl)-2-imidazoline, 4° C.; read-out: Ki (μM) mouse/rat

| SMILES | Ki [µM] |
| --- | --- |
| NC1=N[C@@H](c2cc(F)c(F)cc2F)CO1 [Example 107, (S)-4-(2,4,5-Trifluoro-phenyl)-4,5-dihydro-oxazol-2-ylamine] | 0.004 |
| NC1=N[C@@H](c2cccc(Cl)c2F)CO1 [Example 109, (S)-4-(3-Chloro-2-fluoro-phenyl)-4,5-dihydro-oxazol-2-ylamine] | 0.0014 |
| NC1=N[C@@H](CCc2ccccc2C(F)(F)F)CO1 [Example 110, (S)-4-[2-(2-Trifluoromethyl-phenyl)-ethyl]-4,5-dihydro-oxazol-2-ylamine] | 0.0018 |
| NC1=N[C@@H](CCc2ccccc2F)CO1 [Example 111, (S)-4-[2-(2-Fluoro-phenyl)-ethyl]-4,5-dihydro-oxazol-2-ylamine] | 0.0011 |
| NC1=N[C@@H](CCc2cccc(F)c2)CO1 [Example 112, (S)-4-[2-(3-Fluoro-phenyl)-ethyl]-4,5-dihydro-oxazol-2-ylamine] | 0.0012 |
| NC1=N[C@@H](CCc2cc(F)cc(F)c2)CO1 [Example 113, (S)-4-[2-(3,5-Difluoro-phenyl)-ethyl]-4,5-dihydro-oxazol-2-ylamine] | 0.0016 |
| Cc1ccccc1CC[C@H]1COC(N)=N1 [Example 114, (S)-4-(2-o-Tolyl-ethyl)-4,5-dihydro-oxazol-2-ylamine] | 0.0021 |
| Cc1ccc(CC[C@H]2COC(N)=N2)cc1 [Example 116, (S)-4-(2-p-Tolyl-ethyl)-4,5-dihydro-oxazol-2-ylamine] | 0.0012 |
| NC1=N[C@@H](c2cc(F)cc(F)c2F)CO1 [Example 118, (S)-4-(2,3,5-Trifluoro-phenyl)-4,5-dihydro-oxazol-2-ylamine] | 0.003 |
| NC1=N[C@@H](CCc2ccc(C(F)(F)F)cc2)CO1 [Example 119, (S)-4-[2-(4-Trifluoromethyl-phenyl)-ethyl]-4,5-dihydro-oxazol-2-ylamine] | 0.0026 |
| NC1=N[C@@H](CCc2cccc(C(F)(F)F)c2)CO1 [Example 120, (S)-4-[2-(3-Trifluoromethyl-phenyl)-ethyl]-4,5-dihydro-oxazol-2-ylamine] | 0.0014 |
| NC1=N[C@@H](c2ccccc2C(F)(F)F)CO1 [Example 122, (S)-4-(2-Trifluoromethyl-phenyl)-4,5-dihydro-oxazol-2-ylamine] | 0.0034 |
| NC1=N[C@H](CCc2ccc(Cl)c(Cl)c2)CO1 [Example 124, (R)-4-[2-(3,4-Dichloro-phenyl)-ethyl]-4,5-dihydro-oxazol-2-ylamine] | 0.0044 |
| NC1=N[C@@H](CCc2ccc(Cl)c(Cl)c2)CO1 [Example 127, (S)-4-[2-(3,4-Dichloro-phenyl)-ethyl]-4,5-dihydro-oxazol-2-ylamine] | 0.0003 |
| COc1ccc([C@H]2COC(N)=N2)cc1C [Example 129, (S)-4-(4-Methoxy-3-methyl-phenyl)-4,5-dihydro-oxazol-2-ylamine] | 0.0029 |
| COc1ccc([C@H]2COC(N)=N2)cc1Cl [Example 131, (S)-4-(3-Chloro-4-methoxy-phenyl)-4,5-dihydro-oxazol-2-ylamine] | 0.0024 |
| NC1=N[C@@H](CCc2ccc(Cl)cc2F)CO1 [Example 132, (S)-4-[2-(4-Chloro-2-fluoro-phenyl)-ethyl]-4,5-dihydro-oxazol-2-ylamine] | 0.0007 |
| NC1=N[C@@H](CCc2ccc(F)c(C(F)(F)F)c2)CO1 [Example 133, (S)-4-[2-(4-Fluoro-3-trifluoromethyl-phenyl)-ethyl]-4,5-dihydro-oxazol-2-ylamine] | 0.0022 |

| SMILES | Ki [µM] |
| --- | --- |
| C[C@]1(c2ccc(Cl)c(Cl)c2)COC(N)=N1 [Example 135, (S)-4-(3,4-Dichloro-phenyl)-4-methyl-4,5-dihydro-oxazol-2-ylamine] | 0.0009 |
| C[C@]1(c2ccc(Cl)cc2)COC(N)=N1 [Example 136, (S)-4-(4-Chloro-phenyl)-4-methyl-4,5-dihydro-oxazol-2-ylamine] | 0.0038 |
| NC1=N[C@@H](CCc2ccc(C(F)(F)F)c(F)c2)CO1 [Example 137, (S)-4-[2-(3-Fluoro-4-trifluoromethyl-phenyl)-ethyl]-4,5-dihydro-oxazol-2-ylamine] | 0.0025 |
| NC1=N[C@@H](CCc2cc(Cl)cc(Cl)c2)CO1 [Example 138, (S)-4-[2-(3,5-Dichloro-phenyl)-ethyl]-4,5-dihydro-oxazol-2-ylamine] | 0.0012 |
| Cc1cc(CC[C@H]2COC(N)=N2)ccc1F [Example 140, (S)-4-[2-(4-Fluoro-3-methyl-phenyl)-ethyl]-4,5-dihydro-oxazol-2-ylamine] | 0.001 |
| NC1=N[C@@H](CCc2cccc(OC(F)(F)C(F)F)c2)CO1 [Example 141, (S)-4-{2-[3-(1,1,2,2-Tetrafluoro-ethoxy)-phenyl]-ethyl}-4,5-dihydro-oxazol-2-ylamine] | 0.0027 |
| NC1=N[C@@H](CCc2cccc(C(F)(F)F)c2F)CO1 [Example 142, (S)-4-[2-(2-Fluoro-3-trifluoromethyl-phenyl)-ethyl]-4,5-dihydro-oxazol-2-ylamine] | 0.0018 |
| NC1=N[C@@H](CCc2cccc(Br)c2)CO1 [Example 143, (S)-4-[2-(3-Bromo-phenyl)-ethyl]-4,5-dihydro-oxazol-2-ylamine] | 0.0007 |
| NC1=N[C@@H](CCc2ccc(Cl)c(C(F)(F)F)c2)CO1 [Example 144, (S)-4-[2-(4-Chloro-3-trifluoromethyl-phenyl)-ethyl]-4,5-dihydro-oxazol-2-ylamine] | 0.0012 |
| NC1=N[C@@H](CCc2ccc(OC(F)(F)F)c(F)c2)CO1 [Example 145, (S)-4-[2-(3-Fluoro-4-trifluoromethoxy-phenyl)-ethyl]-4,5-dihydro-oxazol-2-ylamine] | 0.0026 |
| NC1=N[C@@H](CCc2ccc(F)c(OC(F)(F)F)c2)CO1 [Example 146, (S)-4-[2-(4-Fluoro-3-trifluoromethoxy-phenyl)-ethyl]-4,5-dihydro-oxazol-2-ylamine] | 0.0041 |
| C[C@]1(c2ccc(C(F)(F)F)cc2)COC(N)=N1 [Example 147, (S)-4-Methyl-4-(4-trifluoromethyl-phenyl)-4,5-dihydro-oxazol-2-ylamine] | 0.0041 |
| NC1=N[C@@H](CCc2cccc(Cl)c2Cl)CO1 [Example 149, (S)-4-[2-(2,3-Dichloro-phenyl)-ethyl]-4,5-dihydro-oxazol-2-ylamine] | 0.0019 |
| NC1=N[C@@H](CCc2ccc(OC(F)(F)F)c(Cl)c2)CO1 [Example 150, (S)-4-[2-(3-Chloro-4-trifluoromethoxy-phenyl)-ethyl]-4,5-dihydro-oxazol-2-ylamine] | 0.0009 |
| NC1=N[C@@H](CCc2cccc(C(F)(F)F)c2Cl)CO1 [Example 151, (S)-4-[2-(2-Chloro-3-trifluoromethyl-phenyl)-ethyl]-4,5-dihydro-oxazol-2-ylamine] | 0.001 |
| NC1=N[C@@H](c2cccc(C(F)(F)F)c2)CO1 [Example 153, (S)-4-(3-Trifluoromethyl-phenyl)-4,5-dihydro-oxazol-2-ylamine] | 0.0083 |
| CC(Cc1ccccc1)[C@H]1COC(N)=N1 (stereo partly drawn) [Example 154, (S)-4-(1-Methyl-2-phenyl-ethyl)-4,5-dihydro-oxazol-2-ylamine] | 0.0034 |
